Data taken from patent US7041808B2 (priority 2001, dated 2006).
Bridges are numbered along the chain shown (N, C = ends). Where no end group is shown, it is not given here.

Assays:
Assay type in all cases: cell-based
Rhizoctonia solani = assay: Anti-filamentous fungal activity, inhibitory circle on agar plate; conditions: 1 μl sample spotted, culture 24 hours at 25° C.
Description: Rhizoctonia solani microorganisms were cultured in a potato dextrose (PD) medium (Difco) at 25° C. for 5 days, and then their hyphae were cut thin with a homogenizer. From the resulting suspension of thin hyphae, a clump of hyphae was removed, and the hyphae were recovered by centrifugation and adjusted to a density of 10^5 hyphae/ml with PD medium. A PDA medium was added in a solution form to 250 μl hypha suspension to form 5 ml suspension which was then spread on a Petri dish (diameter, 8.4 cm). After the medium was solidified, 1 μl sample for activity evaluation was spotted thereon followed by culture for 24 hours at 25° C., and the size of an inhibitory circle formed around the spot was measured.
The above-described method of evaluating anti-Rhizoctonia solani activity was used to evaluate the activity of the 4 synthetic proteins.

Pyricularia oryzae = conditions: 50 μg protein spotted
Rhizoctonia solani Kuhn = tested on: Rhizoctonia solani Kuhn
Septoria tritici = tested on: Septoria tritici
Phytophthora infestance = conditions: V8 juice medium, 20° C., 50 μg protein spotted
Staphylococcus aureus = tested on: Staphylococcus aureus
Escherichia coli = tested on: Escherichia coli

Substance	Inhibitory circle (Rhizoctonia solani)	Inhibitory circle (Pyricularia oryzae)	Inhibitory circle (Rhizoctonia solani Kuhn)	Inhibitory circle (Septoria tritici)	Inhibitory circle (Phytophthora infestance)	Inhibitory circle (Staphylococcus aureus)	Inhibitory circle (Escherichia coli)
SP4337: protein consisting of 38 amino acid residues in total represented by SEQ ID NO:9; chemically synthesized (ELPKLPDDKVLIRSRSNCPKGKVWNGFDCKSPFAFSKK; Oryctes rhinoceros)	⊚ (Inhibitory circle of 4 mm or more)	–	–	–	–	–	–
SP4523: protein consisting of 40 amino acid residues in total represented by SEQ ID NO:10; chemically synthesized (DAELPKLPDDKVLIRSRSNCPKGKVWNGFDCKSPFAFSKK; Oryctes rhinoceros)	⊚ (Inhibitory circle of 4 mm or more)	–	–	–	–	–	–
SP4266: protein consisting of 38 amino acid residues in total represented by SEQ ID NO:8; chemically synthesized (DAELPKLPDDKVLIRSRSNCPKGKVWNGFDCKSPFAFS; Oryctes rhinoceros)	⊚ (Inhibitory circle of 4 mm or more)	–	–	–	–	–	–
SP4080: protein consisting of 36 amino acid residues, SEQ ID NO:7, from Coconut rhinoceros beetle; chemically synthesized with disulfide linkages (ELPKLPDDKVLIRSRSNCPKGKVWNGFDCKSPFAFS; disulfide 18-29 (inferred))	⊚ (Inhibitory circle of 4 mm or more)	◯ (Inhibitory circle of less than 4 mm)	⊚ (key: ⊚: Inhibitory circle of 4 mm or more; ◯: Inhibitory circle of less than 4 mm; X: No activity)	◯ (key: ⊚: Inhibitory circle of 4 mm or more; ◯: Inhibitory circle of less than 4 mm; X: No activity)	◯ (Inhibitory circle of less than 4 mm)	⊚ (key: ⊚: Inhibitory circle of 4 mm or more; ◯: Inhibitory circle of less than 4 mm; X: No activity)	⊚ (key: ⊚: Inhibitory circle of 4 mm or more; ◯: Inhibitory circle of less than 4 mm; X: No activity)
